According to PubChem BioAssay AID1963874 (Molecular Pharmacology Branch, DTP, NCI, 2024):

Test system: 253994-281-T-J1-PDC KRAS-mutant spheroids with HUVEC/MSC, viability
Experiment: Anticancer human tumor 253994-281-T-J1-PDC patient-derived colorectal carcinoma cell line growth inhibition [KRAS2]
Conditions: for IC50: curve of first compound; for viability, T/C: stronger effect = lower value
Method in brief: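 KRAS-mutant tumor cells were grown as spheroids with HUVEC endothelial cells and human MSCs as stroma. Targeted agents were tested alone and with KRAS pathway inhibitors. Doses started at or near clinical Cmax, or 10 microM, descending half-log.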
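Also: spheroids exposed to agents for seven days before readout.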
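For viability, T/C in this document: percent of DMSO vehicle control viability.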

## CC(=O)Nc1cccc(-n2c(=O)n(C3CC3)c(=O)c3c(Nc4ccc(I)cc4F)n(C)c(=O)c(C)c32)c1 + CNCc1ccccc1-c1csc(C(C)Nc2nc(C)nc3cc(OC)c(OC)cc23)c1
Second compound 0.1 µM
  IC50: 0.649 nM
Second compound 0.316 µM
  IC50: 0.415 nM
Second compound 1 µM
  IC50: 0.205 nM
Second compound 3.16 µM
  IC50: < 0.1 nM
Second compound 10 µM
  IC50: < 0.1 nM
Second compound 0.1 µM, first compound 0.0001 µM
  viability, T/C: 81.3%
Second compound 0.1 µM, first compound 0.000316 µM
  viability, T/C: 81.5%
Second compound 0.1 µM, first compound 0.001 µM
  viability, T/C: 31.4%
Second compound 0.1 µM, first compound 0.00316 µM
  viability, T/C: 19%
Second compound 0.1 µM, first compound 0.01 µM
  viability, T/C: 10.6%
Second compound 0.1 µM, first compound 0.0316 µM
  viability, T/C: 5.26%
Second compound 0.316 µM, first compound 0.0001 µM
  viability, T/C: 80.2%
Second compound 0.316 µM, first compound 0.000316 µM
  viability, T/C: 57.2%
Second compound 0.316 µM, first compound 0.001 µM
  viability, T/C: 28.7%
Second compound 0.316 µM, first compound 0.00316 µM
  viability, T/C: 17.2%
Second compound 0.316 µM, first compound 0.01 µM
  viability, T/C: 10.9%
Second compound 0.316 µM, first compound 0.0316 µM
  viability, T/C: 4.68%
Second compound 1 µM, first compound 0.0001 µM
  viability, T/C: 67.4%
Second compound 1 µM, first compound 0.000316 µM
  viability, T/C: 39.9%
Second compound 1 µM, first compound 0.001 µM
  viability, T/C: 16.3%
Second compound 1 µM, first compound 0.00316 µM
  viability, T/C: 10.7%
Second compound 1 µM, first compound 0.01 µM
  viability, T/C: 7.62%
Second compound 1 µM, first compound 0.0316 µM
  viability, T/C: 3.86%
Second compound 3.16 µM, first compound 0.0001 µM
  viability, T/C: 5.81%
Second compound 3.16 µM, first compound 0.000316 µM
  viability, T/C: 1.42%
Second compound 3.16 µM, first compound 0.001 µM
  viability, T/C: 0.92%
Second compound 3.16 µM, first compound 0.00316 µM
  viability, T/C: 0.18%
Second compound 3.16 µM, first compound 0.01 µM
  viability, T/C: 0.16%
Second compound 3.16 µM, first compound 0.0316 µM
  viability, T/C: 0.34%
Second compound 10 µM, first compound 0.0001 µM
  viability, T/C: 0.16%
Second compound 10 µM, first compound 0.000316 µM
  viability, T/C: 0.15%
Second compound 10 µM, first compound 0.001 µM
  viability, T/C: 0.14%
Second compound 10 µM, first compound 0.00316 µM
  viability, T/C: 0.18%
Second compound 10 µM, first compound 0.01 µM
  viability, T/C: 0.12%
Second compound 10 µM, first compound 0.0316 µM
  viability, T/C: 0.21%
